Columns and labels:
[1] = Foam test of DOSS solutions with added foam control agent (based on ASTM D 1173-53); assay type: physicochemical; conditions: 0.1 wt % foam control agent added to 0.1 wt % DOSS in water; for Initial foam height: ambient temperature
Text: Dioctyl sodium sulfosuccinate (DOSS) is a commonly used surfactant in waterborne compositions. DOSS is capable of forming stable foams when dissolved in water. The foam control characteristics of various foam control agents may be assessed by measuring the foam generated by a 0.1 wt % aqueous solution of DOSS and comparing this to the foam generated after the addition of foam control agent to a 0.1 wt % DOSS solution. The DOSS utilized in these measurements was an Aerosol OT 75% surfactant obtained from Cytec Industries. The foaming and foam stability of DOSS were measured using a procedure based upon ASTM D 1173-53 at ambient temperature, typically 23° C.
In these tests, an aqueous solution of DOSS or the filtrate from the DOSS/foam control agent mixture is added from an elevated foam pipette to a foam receiver containing the same solution. The foam height is measured at the completion of the addition (“Initial Foam Height”) and the time required for the foam to dissipate at the air-liquid interface (“Time to 0 Foam”) is recorded. This test provides a comparison between the foaming characteristics of various aqueous compositions. The results for the foam control agents prepared in Examples 1-28 are reported in Table 1 along with comparative data for a 0.1 wt % solution of DOSS with no added foam control agent (Example 29).

[2] = Dynamic surface tension of aqueous solutions, maximum bubble pressure method; assay type: physicochemical; conditions: for γ at 0.1 wt %, 0.1 b/s / γ at 0.1 wt %, 1 b/s / γ at 0.1 wt %, 6 b/s / γ at 0.1 wt %, 20 b/s: 0.1 wt % in distilled water; for γ limiting, 0.1 b/s / γ limiting, 1 b/s / γ limiting, 6 b/s / γ limiting, 20 b/s: saturated solution made using 1.0 wt % in water
Text: Dynamic surface tension data were obtained for the soluble portion of these samples using the maximum bubble pressure method at bubble rates from 0.1 bubbles/sec (b/s) to 20 b/s.
The relative efficiency of surface tension reduction can be obtained by comparing surface tension reduction of solutions containing the same amount of different surfactants. Such data are given for 0.1 wt % solutions of the foam control agents at 0.1, 1, 6 and 20 bubbles/second (b/s). The limiting surface tensions at 0.1, 1, 6 and 20 b/s represent the lowest surface tensions in water which can be achieved at the given surface creation rates for a given surfactant regardless of the amount of surfactant used and is used to evaluate the effectiveness of a surfactant. In most cases the limiting surface tension was taken at 1.0 wt % since the foam control agent was insoluble at this concentration. In the case where the foam control agent was soluble at 1.0 wt %, the limiting surface tension was taken at 5.0 wt % (where the samples were insoluble). These values give information about the relative ability to a surfactant to reduce surface defects under near-equilibrium conditions (0.1 b/s) through very dynamic conditions (20 b/s).

γ at 0.1 wt %, 0.1 b/s [2] [dyne/cm] | γ at 0.1 wt %, 1 b/s [2] [dyne/cm] | γ at 0.1 wt %, 6 b/s [2] [dyne/cm] | γ at 0.1 wt %, 20 b/s [2] [dyne/cm] | γ limiting, 0.1 b/s [2] [dyne/cm] | γ limiting, 1 b/s [2] [dyne/cm] | γ limiting, 6 b/s [2] [dyne/cm] | γ limiting, 20 b/s [2] [dyne/cm] | SMILES | Foam height after 1 min [1] [cm] | Foam height after 10 min [1] [cm] | Initial foam height [1] [cm]
37.6 | 39.6 | 43.2 | 51.3 | 34.9 | 35.6 | 36.5 | 38.3 | CCCCOCC(O)CNCCN(CC(O)COCCCC)CC(O)COCCCC (stereo not drawn) [EDA/3 BGE] | 1.4 | 1.2 | 2.0
45.3 | 58.7 | 70.5 | 70.9 | 33.5 | 36.0 | 47.1 | 48.7 | CCCCC(CC)COCC(O)CNCCN(CC(O)COCC(CC)CCCC)CC(O)COCC(CC)CCCC (stereo not drawn) [EDA/3 EHGE] | 1.5 | 1.2 | 2.1
37.6 | 41.7 | 51.4 | 65.5 | 34.8 | 36.7 | 40.3 | 49.4 | CC(C)COCC(O)CN(CCN(CC(O)COCC(C)C)CC(O)COCC(C)C)CC(O)COCC(C)C (stereo not drawn) [EDA/4 IBGE] | 1.5 | 1.2 | 2.0
42.9 | 55.9 | 67.6 | 70.8 | 37.3 | 39.0 | 40.8 | 41.9 | CCCCOCC(O)CN(CCCCCCN(CC(O)COCCCC)CC(O)COCCCC)CC(O)COCCCC (stereo not drawn) [HDA/4 BGE] | 1.3 | 1.2 | 1.5
50.2 | 59.2 | 69.1 | 71.8 | 47.9 | 54.0 | 63.5 | 65.8 | CCCCOCC(O)CNC1CCC(CC2CCC(N(CC(O)COCCCC)CC(O)COCCCC)CC2)CC1 (stereo not drawn) [PACM/3 BGE] | 2.8 | 1.5 | 2.5

The remaining lines, values behind:

SMILES | γ at 0.1 wt %, 0.1 b/s [2] [dyne/cm] | γ at 0.1 wt %, 1 b/s [2] [dyne/cm] | γ at 0.1 wt %, 6 b/s [2] [dyne/cm] | γ at 0.1 wt %, 20 b/s [2] [dyne/cm] | γ limiting, 0.1 b/s [2] [dyne/cm] | γ limiting, 1 b/s [2] [dyne/cm] | γ limiting, 6 b/s [2] [dyne/cm] | γ limiting, 20 b/s [2] [dyne/cm] | Foam height after 1 min [1] [cm] | Foam height after 10 min [1] [cm] | Initial foam height [1] [cm]
CCCCOCC(O)CN(CCCOCCOCCOCCCN(CC(O)COCCCC)CC(O)COCCCC)CC(O)COCCCC (stereo not drawn) [DAPDEG/4 BGE] | 37.4 | 38.9 | 42.0 | 50.7 | 34.2 | 34.5 | 35.5 | 39.1 | 1.2 | 0.2 | 2.3
CC(C)COCC(O)CNCCN(CC(O)COCC(C)C)CC(O)COCC(C)C (stereo not drawn) [EDA/3 IBGE] | 38.9 | 42.5 | 44.1 | 50.3 | 33.3 | 34.3 | 35.0 | 35.6 | 0.8 | 0.7 | 0.9
CCCCOCC(O)CN(CCN(CC(O)COCCCC)CC(O)COCCCC)CC(O)COCCCC (stereo not drawn) [EDA/4 BGE] | 36.7 | 38.9 | 44.4 | 58.4 | 35.9 | 37.0 | 39.2 | 43.0 | 1.3 | 1.2 | 1.9
CCCCC(CC)COCC(O)CN(CCN(CC(O)COCC(CC)CCCC)CC(O)COCC(CC)CCCC)CC(O)COCC(CC)CCCC (stereo not drawn) [EDA/4 EHGE] | 60.7 | 67.9 | 71.0 | 71.7 | 44.4 | 50.6 | 51.0 | 52.1 | 2.5 | 2.1 | 3.0
CCCCOCC(O)CNCCCCCCN(CC(O)COCCCC)CC(O)COCCCC (stereo not drawn) [HDA/3 BGE] | 40.3 | 43.1 | 47.5 | 55.4 | 37.9 | 39.1 | 40.7 | 44.4 | 0 | 0 | 1.2
CCCCOCC(O)CN(CCCC(C)CN(CC(O)COCCCC)CC(O)COCCCC)CC(O)COCCCC (stereo not drawn) [MPD/4 BGE] | 42.8 | 55.7 | 67.5 | 67.7 | 35.3 | 36.4 | 38.9 | 41.5 | 1.5 | 0.5 | 2.5
CCCCOCC(O)CN(CC(O)COCCCC)C1CCC(CC2CCC(N(CC(O)COCCCC)CC(O)COCCCC)CC2)CC1 (stereo not drawn) [PACM/4 BGE] | 70.6 | 71.8 | 72.0 | 72.4 | 58.5 | 68.5 | 70.5 | 71.0 | 2.1 | 1.8 | 2.7
